Patent publication US7649012B2, “Compounds, pharmaceutical compositions containing same, and methods of use for same” (FASgen, Inc., priority 2002, dated 2010)
In brackets after ≈: the same amount, converted by molar mass. Read-outs that look alike come from different tables or passages of the source.

Tests used:
Format in all cases: cell-based
[1] = tested on: MCF-7 human breast cancer cells; experiment: [14C]acetate incorporation into total lipids; conditions: Homo sapiens, MCF7, [14C]acetate incorporation into lipids
Procedure: This assay measures the incorporation of [^14C]acetate into total lipids and is a measure of fatty acid synthesis pathway activity in vitro. It is utilized to measure inhibition of fatty acid synthesis in vitro.
MCF-7 human breast cancer cells cultured as above, are plated at 5×10^4 cells per well in 24-well plates. […] DMSO is added to triplicate wells for a vehicle control. C75 is run at 5 and 10 μg/ml in triplicate as positive controls. After 4 hours of incubation, 0.25 μCi of [^14C]acetate (10 μl volume) is added to each well.
After 2 hours of additional incubation, medium is aspirated from the wells and 800 μl of chloroform:methanol (2:1) and 700 μl of 4 mM MgCl2 is added to each well. Contents of each well are transferred to 1.5 Eppendorf tubes, and spun at full-speed for 2 minutes in a high-speed Eppendorf Microcentrifuge 5415D. After removal of the aqueous (upper) layer, an additional 700 μl of chloroform:methanol (2:1) and 500 μl of 4 mM MgCl2 are added to each tube and then centrifuged for 1 minutes as above. The aqueous layer is removed with a Pasteur pipette and discarded. An additional 400 μl of chloroform:methanol (2:1) and 200 μl of 4 mM MgCl2 are added to each tube, then centrifuged and aqueous layer is discarded. The lower (organic) phase is transferred into a scintillation vial and dried at 40° C. under N2 gas. Once dried, 3 ml of scintillant (APB #NBC5104) is added and vials are counted for ^14C. The Beckman Scintillation counter calculates the average cpm values for triplicates.
The IC50 for the compounds is defined as the concentration of drug leading to a 50% reduction in [^14C]acetate incorporation into lipids compared to controls. […] The average cpm values are computed by the Beckman scintillation counter (Model LS6500) for each compound concentration. Computation of linear regression, best-fit line, r^2, and 95% confidence intervals are calculated using Prism Version 3.0 (Graph Pad Software).

[2] = tested on: Enterococcus faecalis (ATCC # 29212); experiment: Broth microdilution MIC; conditions: for MIC: Enterococcus faecalis, ATCC29212
Procedure: (§1) A broth microdilution assay is used to assess the antimicrobial activity of the compounds. […] Microorganisms tested include Staphylococcus aureus (ATCC # 29213), Enterococcus faecalis (ATCC # 29212), Pseudomonas aeruginosa (ATCC # 27853), and Escherichia coli (ATCC # 25922). The assay is performed in two growth media, Mueller Hinton Broth and Trypticase Soy Broth. […] Colonies are suspended in sterile broth so that the turbidity matches the turbidity of a 0.5 McFarland standard. The inoculum is diluted 1:10 in sterile broth (Mueller Hinton or Trypticase soy) and 195 ul is dispensed per well of a 96-well plate. The compounds to be tested, dissolved in DMSO, are added to the wells in 5 ul volume at the following concentrations: 25, 12.5, 6.25, 3.125, 1.56 and 0.78 ug/ml in duplicate. Additional concentrations are tested if required. 5 ul of DMSO added to duplicate wells are the vehicle control. Serial dilutions of positive control compounds, vancomycin (E. faecalis and S. aureus) and tobramycin (E. coli and P. aeruginosa), are included in each run. After 24 hours of incubation at 37° C., plates are read at OD600 on a Molecular Devices SpectraMax Plus Spectrophotometer. Average OD600 values are computed using SOFTmax Pro Software (Molecular Devices) and MIC values are determined by linear regression analysis using Prism version 3.02 (Graph Pad Software, San Diego).

[3] = tested on: Escherichia coli (ATCC # 25922); experiment: Broth microdilution MIC; conditions: for MIC: Escherichia coli, ATCC25922
Procedure: as §1

[4] = tested on: Pseudomonas aeruginosa (ATCC # 27853); experiment: Broth microdilution MIC; conditions: for PSAE/MH(MIC): Mueller Hinton Broth; for PSAE/Tsoy(MIC): Trypticase Soy Broth
Procedure: as §1

[5] = tested on: Staphylococcus aureus (ATCC # 29213); experiment: Broth microdilution MIC; conditions: for MIC: Staphylococcus aureus, ATCC29213
Procedure: as §1

[6] = tested on: MCF-7 human breast cancer cells; experiment: Crystal violet cell growth assay; conditions: MCF7, MCF-7, 72 hours, read-out: Cr. Violet(IC50)
Procedure: The crystal violet assay measure cell growth but not cytotoxicity. This assay employs crystal violet staining of fixed cells in 96-well plates with subsequent solubilization and measurement of OD490 on a spectrophotometer. The OD490 corresponds to cell growth per unit time measured. Cells are treated with the compounds of interest or vehicle controls and IC50 for each compound is computed.
To measure the cytotoxicity of specific compounds against cancer cells, 5×10^4 MCF-7 human breast cancer cells, obtained from the American Type Culture Collection are plated per well in 24 well plates in DMEM medium with 10% fetal bovine serum, penicillin, and streptomycin. Following overnight culture at 37° C. and 5% CO2, the compounds to be tested, dissolved in DMSO, are added to the wells in 1 μl volume at the following concentrations: 50, 40, 30, 20, and 10 μg/ml in triplicate. Additional concentrations are tested if required. 1 μl of DMSO is added to triplicate wells are the vehicle control. C75 is run at 10, and 5 μg/ml in triplicate as positive controls.
After 72 hours of incubation, cells are stained with 0.5 ml of Crystal Violet stain (0.5% in 25% methanol) in each well. After 10 minutes, wells are rinsed, air dried, and then solubilized with 0.5 ml 10% sodium dodecylsulfate with shaking for 2 hours.

[7] = Mueller Hinton Broth, read-out: EF/MH(MIC)
[8] = Trypticase Soy Broth, read-out: EF/Tsoy(MIC)
[9] = Mueller Hinton Broth, read-out: SA/MH(MIC)
[10] = Trypticase Soy Broth, read-out: SA/Tsoy(MIC)
[11] = Trypticase Soy Broth, read-out: Ecoli/Tsoy(MIC)

SMILES | IC50 [1] | MIC [2, 7] | MIC [2, 8] | Ecoli/MH(MIC) ([3]; Mueller Hinton Broth) | Ecoli/Tsoy(MIC) ([3]; Trypticase Soy Broth) | PSAE/MH(MIC) [4] | PSAE/Tsoy(MIC) [4] | MIC [5, 9] | MIC [5, 10] | IC50 [6] | SA/MH(MIC) ([5]; Mueller Hinton Broth) | EF/Tsoy(MIC) ([2]; Trypticase Soy Broth) | MIC [3, 11] | EF/MH(MIC) ([2]; Mueller Hinton Broth) | MIC ([3]; Mueller Hinton Broth, read-out: Ecoli/MH(MIC))
CCCCCCCCC1(C)SC(=O)C(C)=C1OC (centres unmarked) | 63.8 µg/mL (≈ 236 µM) | 208 µg/mL (≈ 769 µM) | 94 µg/mL (≈ 348 µM) | Neg | Neg | Neg | Neg | 132 µg/mL (≈ 488 µM) | 108 µg/mL (≈ 399 µM) | 15.9 ± 1.9 µg/mL (≈ 58.8 µM) |  |  |  |  | 
CCCCCCCC[C@@]1(C)SC(=O)C=C1OCC(=O)O | 13.8 ± 1.1 µg/mL (≈ 45.9 µM) | 77 µg/mL (≈ 256 µM) | 164 µg/mL (≈ 546 µM) | Neg | Neg | Neg | Neg | 98 µg/mL (≈ 326 µM) | 60 µg/mL (≈ 200 µM) | 33.7 µg/mL (≈ 112 µM) |  |  |  |  | 
COC1=CC(=O)SC1(C)Cc1ccccc1 (centres unmarked) |  | 170 µg/mL (≈ 726 µM) | 189 µg/mL (≈ 807 µM) | Neg | Neg | Neg | Neg | 83 µg/mL (≈ 354 µM) | 129 µg/mL (≈ 551 µM) | 20.9 µg/mL (≈ 89.2 µM) |  |  |  |  | 
CCCCCCCCC1(C)SC(=O)C(C(C)O)=C1O (centres unmarked) | 17.6 µg/mL (≈ 61.4 µM) | 66 µg/mL (≈ 230 µM) | 21 µg/mL (≈ 73.3 µM) | Neg | Neg | Neg | Neg | 53.1 ± 0.5 µg/mL (≈ 185 µM) | 12 ± 0.5 µg/mL (≈ 41.9 µM) | 19.5 µg/mL (≈ 68.1 µM) |  |  |  |  | 
C=CCC1(C)C(=O)S[C@](C)(CCCCCCCC)C1=O (mixture of isomers) | 14.9 µg/mL | 133 µg/mL | 91 µg/mL | Neg | Neg | Neg | Neg |  | 97 µg/mL | > 50 µg/mL | Neg |  |  |  | 
CCCCCC[C@@]1(C)SC(=O)C=C1OCCCCCl (racemic) | 8.6 µg/mL (≈ 28.2 µM) | 117 µg/mL (≈ 384 µM) | 165 µg/mL (≈ 541 µM) | Neg | Neg | Neg | Neg | 164 µg/mL (≈ 538 µM) | 50 µg/mL (≈ 164 µM) | 16.3 µg/mL (≈ 53.5 µM) |  |  |  |  | 
CCCCCCCC[C@@]1(C)SC(=O)C=C1OCCCCCl (racemic) | 6.8 µg/mL (≈ 20.4 µM) | 64 µg/mL (≈ 192 µM) |  | Neg | Neg | Neg | Neg | 115 µg/mL (≈ 345 µM) | 134 µg/mL (≈ 402 µM) | 10.3 ± 0.3 µg/mL (≈ 30.9 µM) |  | Neg |  |  | 
CCCCCC[C@@]1(C)SC(=O)C=C1OCC(=O)OCC (racemic) | 14.2 ± 0.2 µg/mL (≈ 47.3 µM) | 21.3 µg/mL (≈ 70.9 µM) |  | Neg |  | Neg | Neg |  | 129 µg/mL (≈ 429 µM) | 17 µg/mL (≈ 56.6 µM) | Neg | Neg | 281 µg/mL (≈ 935 µM) |  | 
CCCCCC[C@@]1(C)SC(=O)C=C1OCC(=O)NCC(=O)OC (racemic) | 9.8 µg/mL (≈ 28.5 µM) |  |  |  | Neg | Neg | Neg | 69 µg/mL (≈ 201 µM) | 111 µg/mL (≈ 323 µM) | 32.5 ± 11.7 µg/mL (≈ 94.6 µM) |  | Neg |  | Neg | 156 µg/mL (≈ 454 µM)
CCCCCC[C@@]1(C)SC(=O)C=C1OCC(=O)NCCCBr (racemic) | 6.7 µg/mL (≈ 17.1 µM) | 99 µg/mL (≈ 252 µM) | 121 µg/mL (≈ 308 µM) | Neg |  | Neg | Neg | 147 µg/mL (≈ 375 µM) | 237 µg/mL (≈ 604 µM) | 12.6 ± 3.7 µg/mL (≈ 32.1 µM) |  |  | 293 µg/mL (≈ 747 µM) |  | 
CCCCCCCC[C@@]1(C)SC(=O)C=C1OC(=O)CC (racemic) | 22.6 µg/mL (≈ 75.7 µM) | 102 µg/mL (≈ 342 µM) | 147 µg/mL (≈ 493 µM) | Neg | Neg | Neg | Neg | 88 µg/mL (≈ 295 µM) | 62 µg/mL (≈ 208 µM) | 38.6 µg/mL (≈ 129 µM) |  |  |  |  | 
CCCCCCCC[C@@]1(C)SC(=O)C(C(=O)C(F)(F)F)=C1O (racemic) | 14.7 µg/mL (≈ 43.4 µM) |  |  |  |  | Neg | Neg | 54 µg/mL (≈ 160 µM) | 65 µg/mL (≈ 192 µM) | 45.3 µg/mL (≈ 134 µM) |  |  |  |  | 
CCCCCCCC[C@@]1(C)SC(=O)C=C1OC(=O)NC(C)C (racemic) | 23.1 ± 13.2 µg/mL (≈ 70.5 µM) | 60 µg/mL (≈ 183 µM) | 64 µg/mL (≈ 195 µM) | Neg | Neg | Neg | Neg | 32 µg/mL (≈ 97.7 µM) | 39 µg/mL (≈ 119 µM) | 22.5 µg/mL (≈ 68.7 µM) |  |  |  |  | 
